These results are taken from publication PMC5288202, “Simultaneous inhibition of Vps34 kinase would enhance PI3Kδ inhibitor cytotoxicity in the B-cell malignancies” (Oncotarget, 2016).

Bounds are passed on as bounds.

One assay has as its target T1, VPS34 (Homo sapiens, UniProt Q8NEB9).
T1 construct: purchased Invitrogen
Put plainly: ADP-Glo biochemical assay. Conditions: purified protein, 50 μM ATP, read-out: IC50 against VPS34. (In general: In ADP-Glo the light output rises with the ADP produced.)

Assay [1] deals with T2, PI3Kγ (Homo sapiens, UniProt P48736).
T2 construct: purchased Invitrogen
T2 sequence (P48736 whole entry): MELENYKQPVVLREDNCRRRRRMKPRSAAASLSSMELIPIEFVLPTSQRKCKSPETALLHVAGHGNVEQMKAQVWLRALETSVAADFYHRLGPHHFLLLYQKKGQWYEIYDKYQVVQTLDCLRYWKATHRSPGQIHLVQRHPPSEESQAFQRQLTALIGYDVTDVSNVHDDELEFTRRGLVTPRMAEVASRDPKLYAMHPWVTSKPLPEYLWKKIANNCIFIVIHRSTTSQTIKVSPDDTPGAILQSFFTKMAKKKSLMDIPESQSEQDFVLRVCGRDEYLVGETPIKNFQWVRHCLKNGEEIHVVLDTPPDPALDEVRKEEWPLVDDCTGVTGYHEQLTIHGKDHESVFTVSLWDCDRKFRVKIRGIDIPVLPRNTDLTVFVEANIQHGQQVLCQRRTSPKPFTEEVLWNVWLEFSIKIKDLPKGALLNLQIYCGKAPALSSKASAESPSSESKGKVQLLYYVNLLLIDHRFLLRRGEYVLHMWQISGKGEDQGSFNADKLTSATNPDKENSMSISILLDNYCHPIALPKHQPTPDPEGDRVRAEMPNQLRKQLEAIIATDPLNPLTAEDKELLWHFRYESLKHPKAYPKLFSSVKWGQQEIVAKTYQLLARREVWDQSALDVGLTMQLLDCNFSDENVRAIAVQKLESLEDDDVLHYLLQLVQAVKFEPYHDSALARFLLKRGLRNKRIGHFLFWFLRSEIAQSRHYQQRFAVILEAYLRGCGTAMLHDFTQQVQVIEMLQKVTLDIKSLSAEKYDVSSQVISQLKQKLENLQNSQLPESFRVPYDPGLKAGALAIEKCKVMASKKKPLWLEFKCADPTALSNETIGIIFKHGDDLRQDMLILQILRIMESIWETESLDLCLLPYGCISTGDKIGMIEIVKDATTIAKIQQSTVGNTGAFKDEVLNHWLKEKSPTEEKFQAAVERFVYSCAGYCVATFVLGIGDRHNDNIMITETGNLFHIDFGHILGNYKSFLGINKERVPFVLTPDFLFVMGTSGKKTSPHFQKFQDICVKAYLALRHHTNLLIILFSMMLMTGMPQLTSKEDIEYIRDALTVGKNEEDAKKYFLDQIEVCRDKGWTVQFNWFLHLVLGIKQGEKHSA
Kind of assay: ADP-Glo biochemical assay. To be noted: purified protein, 50 μM ATP, read-out: IC50 against PI3Kγ (PIK3CG).

The target of the next assay is T3, PI3Kα (Mus musculus, UniProt P42337).
T3 construct: endogenous in cells; host or cells: NIH-3T3 (ATCC)
Kind of assay: PI3K isoforms cellular selectivity assay (AKT phosphorylation, NIH-3T3, PDGF-BB). Type of assay: cell-based. Conditions: NIH-3T3 cells, PDGF-BB stimulation. Here is the method: (§1) Cells were lysed and AKT phosphorylation was determined by Western Blotting. Intensity of the bands was determined using ImageJ 1.42q (NIH, USA) and normalized to total AKT (loading control).

In another assay the target is T4, PI3Kβ (Mus musculus, UniProt Q8BTI9).
T4 construct: endogenous in cells; host or cells: NIH-3T3
Put plainly: PI3K isoforms cellular selectivity assay (AKT phosphorylation, NIH-3T3, LPA). Type of assay: cell-based. To be noted: NIH-3T3 cells, LPA stimulation. Here is the method:
as §1

Assay [2] has as its target T5, PI3Kγ (Mus musculus, UniProt Q9JHG7).
T5 construct: endogenous in cells; host or cells: RAW264.7 (ATCC)
Kind of assay: PI3K isoforms cellular selectivity assay (AKT phosphorylation, RAW264.7, C5a). Type of assay: cell-based. Conditions: RAW264.7 cells, C5a stimulation. Here is the method:
as §1

Assay [3] deals with T6, PI3Kδ (Homo sapiens, UniProt O00329). Kind of assay: PI3K isoforms cellular selectivity assay (AKT phosphorylation, Raji, anti-IgM). To be noted: Raji cells, anti-IgM stimulation. Type of assay: cell-based.
T6 sequence (O00329 whole entry, canonical isoform): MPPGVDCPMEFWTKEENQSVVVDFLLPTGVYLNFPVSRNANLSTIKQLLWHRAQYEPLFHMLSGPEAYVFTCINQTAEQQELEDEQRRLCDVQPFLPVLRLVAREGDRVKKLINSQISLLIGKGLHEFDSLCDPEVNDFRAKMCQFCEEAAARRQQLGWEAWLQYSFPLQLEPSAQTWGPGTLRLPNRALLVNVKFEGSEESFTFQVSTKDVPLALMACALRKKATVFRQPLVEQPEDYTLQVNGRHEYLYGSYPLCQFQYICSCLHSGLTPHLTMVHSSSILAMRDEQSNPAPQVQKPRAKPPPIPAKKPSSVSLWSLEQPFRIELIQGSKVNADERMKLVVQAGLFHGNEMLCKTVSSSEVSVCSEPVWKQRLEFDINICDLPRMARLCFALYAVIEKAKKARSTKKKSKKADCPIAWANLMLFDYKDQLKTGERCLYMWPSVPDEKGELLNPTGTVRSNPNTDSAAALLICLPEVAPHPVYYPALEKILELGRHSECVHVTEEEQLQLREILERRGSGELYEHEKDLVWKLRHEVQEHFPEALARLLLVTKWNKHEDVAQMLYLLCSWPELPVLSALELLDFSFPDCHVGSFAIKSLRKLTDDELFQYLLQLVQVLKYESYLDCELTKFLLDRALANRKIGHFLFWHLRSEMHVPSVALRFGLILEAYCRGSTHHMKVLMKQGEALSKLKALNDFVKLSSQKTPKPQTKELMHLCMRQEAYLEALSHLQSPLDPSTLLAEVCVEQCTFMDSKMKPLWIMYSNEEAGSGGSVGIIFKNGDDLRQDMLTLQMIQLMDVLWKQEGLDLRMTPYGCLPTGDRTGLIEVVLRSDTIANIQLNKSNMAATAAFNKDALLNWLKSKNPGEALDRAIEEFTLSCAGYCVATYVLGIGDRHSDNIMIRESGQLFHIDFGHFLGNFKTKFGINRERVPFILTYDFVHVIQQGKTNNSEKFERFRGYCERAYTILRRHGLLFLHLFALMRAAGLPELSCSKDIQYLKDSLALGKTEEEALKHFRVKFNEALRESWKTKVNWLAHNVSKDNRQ
T6 sequence (P27986 whole entry partner, canonical isoform): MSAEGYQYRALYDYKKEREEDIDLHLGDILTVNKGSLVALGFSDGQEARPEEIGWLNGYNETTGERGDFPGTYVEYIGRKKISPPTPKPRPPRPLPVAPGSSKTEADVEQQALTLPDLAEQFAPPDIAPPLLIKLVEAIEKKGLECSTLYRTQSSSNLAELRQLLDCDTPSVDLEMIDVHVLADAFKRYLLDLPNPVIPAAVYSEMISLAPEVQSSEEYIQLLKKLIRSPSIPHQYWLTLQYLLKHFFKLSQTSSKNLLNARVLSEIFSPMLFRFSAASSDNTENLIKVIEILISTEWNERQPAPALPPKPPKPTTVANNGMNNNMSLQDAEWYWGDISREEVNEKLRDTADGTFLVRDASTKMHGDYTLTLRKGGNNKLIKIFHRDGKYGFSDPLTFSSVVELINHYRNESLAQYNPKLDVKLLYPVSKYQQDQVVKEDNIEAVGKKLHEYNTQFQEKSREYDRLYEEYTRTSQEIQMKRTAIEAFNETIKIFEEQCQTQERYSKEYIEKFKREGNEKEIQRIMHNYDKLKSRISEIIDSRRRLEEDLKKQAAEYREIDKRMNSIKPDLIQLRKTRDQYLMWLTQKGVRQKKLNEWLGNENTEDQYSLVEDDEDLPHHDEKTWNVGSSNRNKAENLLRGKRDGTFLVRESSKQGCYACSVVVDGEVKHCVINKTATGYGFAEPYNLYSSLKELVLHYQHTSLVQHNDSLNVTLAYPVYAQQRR
The next assay addresses T7, mTOR kinase (Homo sapiens, UniProt P42345).
T7 construct: purchased DiscoveRx (KinomeScan platform)
Put plainly: DiscoveRx's KinomeScan binding. Conditions: read-out: % control number, mTOR.

Another assay deals with mTORC1 kinase (Homo sapiens, UniProt P42345). Kind of assay: in vitro IP kinase assay. Type of assay: biochemical. To be noted: activity-based in vitro IP kinase assay; read-out: EC50 mTORC1 kinase inhibition.
A further assay has as its system HL-60. Put plainly: Anti-proliferative effect. It counts as cell-based. Conditions: Homo sapiens, HL-60, read-out: GI50 HL-60.
Assay [4] concerns OCI-AML-3. Put plainly: Anti-proliferative effect. Conditions: Homo sapiens, AML(FLT3wt). Type of assay: cell-based.
In assay [5] the test system is OCI-AML-2. Kind of assay: Anti-proliferative effect. To be noted: Homo sapiens, OCI-AML2, read-out: GI50 OCI-AML-2. It counts as cell-based.
The test system of the next assay is Hs 505T. Put plainly: Anti-proliferative effect. Type of assay: cell-based. To be noted: Homo sapiens, read-out: GI50 Hs 505T.
For the next assay, the system named is MEC-1. Kind of assay: Anti-proliferative effect. Type of assay: cell-based. Conditions: Homo sapiens, MEC1; CLL.
The subject of assay [6] is MEC-2. Kind of assay: Colony formation (colonogenic assay). It counts as cell-based. To be noted: MEC2; CLL.
In assay [7] the test system is PI3Kδ-mediated signaling in OCI-AML-2, OCI-AML-3, MV4-11 and MEC-2 cell lines. Put plainly: PI3Kδ-mediated signaling pathway (immunoblotting). Type of assay: cell-based. To be noted: all four cell lines. From the text: The following antibodies were purchased from Cell Signaling Technology: Akt(#4691), Phospho-Akt(Thr308)(#4056), Phospho-Akt(Ser473)(#4060), GAPDH, GSK-3β(#9315), Phospho-GSK-3β(#9323), FoxO1(#2880), Phospho-FoxO1 (Thr24)/FoxO3a(Thr32)/FoxO4(Thr28)(#2599), PRAS40(#2691), Phospho-PRAS40 (Thr246)(#2997), 4E-BP1(#9644), p70 S6K(#2708), Phospho-p70 S6K (Thr389)(#9234). SQSTM1/p62 (D5E2)(#8025), LC3B(#12513). PARP(#9532), Caspase-3(#9665), Phospho-p44/42 MAPK (Erk1/2) (Thr202/Tyr204)(#4377), p44/42 MAPK (Erk1/2) (#4695), Phospho-NF-ΚB P65 (Ser 536)(#3033), NF-ΚB P65(#4764). Lysophosphatidic Acid (#sc-201053, Santa Cruz), Recombinant Human PDGF-BB (#220-BB, R&D), Recombinant Human C5a (Peprotech, #300-70), goat anti-IgM (#5C07615, Meridian). LC3B antibody (#3868, CST). Tubulin antibody (#8035, Santa Cruz). EEA1 antibody (#610456, BD Bioscience) and LAMP1 antibody (#24170, Abcam). Secondary antibodies, Alexa488-anti-mouse, Alexa594-anti-rabbit and Prolong gold mounting medium with DAPI were purchased from Invitrogen.
In general terms: A western blot detects proteins with antibodies after separation by electrophoresis.

Another assay concerns MV4-11. Put plainly: Induction of apoptosis (PARP cleavage). Type of assay: cell-based.
Assay [8] concerns OCI-AML-3. Put plainly: Autophagy markers LC3BII and p62 (immunoblotting). Type of assay: cell-based.
In assay [9] the test system is MEC-2. Kind of assay: Cell cycle analysis. To be noted: MEC-2, 48 h treatment. Type of assay: cell-based.
The subject of assay [10] is OCI-AML-2. Kind of assay: Cell cycle analysis. Type of assay: cell-based. To be noted: OCI-AML-2, 48 h treatment.
Assay [11] deals with T6, PI3Kδ. Put plainly: Kinase kinetic assay with varied ATP. Also on record: purchased Invitrogen. Type of assay: biochemical. Conditions: varied ATP concentrations. Here is the method: Kinetic analyses of PI3Kδ and Vps34 were performed using a luminometric kinase assay varying the concentration of ATP using the ADP-Glo reagents (Promega). […] After 60 min incubation at RT, varied concentrations of ATP and 0.1 mM substrate (PIP2:PS for PI3Kδ, PI:PS for Vps34) were added and incubated for 60 min at 37° C. The overall rate of reaction was determined as the slope of the decreasing phase of the reaction. Each data point was collected in duplicate and kinetic parameters were obtained using Prism 5.0 (GraphPad Software, San Diego, CA).

In general, IC50 refers to the midpoint of a concentration-inhibition curve. As usually defined, the EC50 is the concentration giving half of the maximal effect. For orientation: GI50 means the concentration that inhibits growth by half.

T5 sequence (Q9JHG7 whole entry): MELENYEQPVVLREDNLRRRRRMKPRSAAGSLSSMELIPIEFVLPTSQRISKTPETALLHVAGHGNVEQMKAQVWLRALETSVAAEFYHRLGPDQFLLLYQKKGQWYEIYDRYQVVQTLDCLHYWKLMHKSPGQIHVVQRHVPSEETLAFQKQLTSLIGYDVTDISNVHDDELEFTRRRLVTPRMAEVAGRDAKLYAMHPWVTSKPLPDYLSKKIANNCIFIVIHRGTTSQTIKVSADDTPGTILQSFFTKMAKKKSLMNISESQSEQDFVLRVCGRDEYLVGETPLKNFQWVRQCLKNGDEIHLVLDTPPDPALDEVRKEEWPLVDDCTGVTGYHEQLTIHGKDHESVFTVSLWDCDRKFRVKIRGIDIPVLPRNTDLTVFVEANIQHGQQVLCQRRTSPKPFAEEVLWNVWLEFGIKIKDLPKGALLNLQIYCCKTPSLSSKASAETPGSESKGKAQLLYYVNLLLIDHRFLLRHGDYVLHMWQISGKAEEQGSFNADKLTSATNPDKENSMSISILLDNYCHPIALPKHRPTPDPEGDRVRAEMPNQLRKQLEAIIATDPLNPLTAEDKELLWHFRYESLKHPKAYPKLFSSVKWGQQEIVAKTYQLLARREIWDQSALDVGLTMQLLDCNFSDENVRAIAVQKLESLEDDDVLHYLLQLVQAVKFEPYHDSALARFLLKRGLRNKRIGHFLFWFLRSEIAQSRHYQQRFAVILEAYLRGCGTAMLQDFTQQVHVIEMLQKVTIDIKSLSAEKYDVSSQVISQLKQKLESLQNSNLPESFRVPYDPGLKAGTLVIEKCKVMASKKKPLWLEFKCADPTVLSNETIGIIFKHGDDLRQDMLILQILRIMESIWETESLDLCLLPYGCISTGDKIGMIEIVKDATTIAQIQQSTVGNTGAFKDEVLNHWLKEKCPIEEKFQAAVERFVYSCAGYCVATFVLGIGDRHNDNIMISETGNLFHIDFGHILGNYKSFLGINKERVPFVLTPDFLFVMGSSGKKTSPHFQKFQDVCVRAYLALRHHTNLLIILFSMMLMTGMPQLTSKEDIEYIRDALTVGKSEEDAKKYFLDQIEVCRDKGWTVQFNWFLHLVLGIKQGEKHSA
T1 sequence (Q8NEB9 whole entry): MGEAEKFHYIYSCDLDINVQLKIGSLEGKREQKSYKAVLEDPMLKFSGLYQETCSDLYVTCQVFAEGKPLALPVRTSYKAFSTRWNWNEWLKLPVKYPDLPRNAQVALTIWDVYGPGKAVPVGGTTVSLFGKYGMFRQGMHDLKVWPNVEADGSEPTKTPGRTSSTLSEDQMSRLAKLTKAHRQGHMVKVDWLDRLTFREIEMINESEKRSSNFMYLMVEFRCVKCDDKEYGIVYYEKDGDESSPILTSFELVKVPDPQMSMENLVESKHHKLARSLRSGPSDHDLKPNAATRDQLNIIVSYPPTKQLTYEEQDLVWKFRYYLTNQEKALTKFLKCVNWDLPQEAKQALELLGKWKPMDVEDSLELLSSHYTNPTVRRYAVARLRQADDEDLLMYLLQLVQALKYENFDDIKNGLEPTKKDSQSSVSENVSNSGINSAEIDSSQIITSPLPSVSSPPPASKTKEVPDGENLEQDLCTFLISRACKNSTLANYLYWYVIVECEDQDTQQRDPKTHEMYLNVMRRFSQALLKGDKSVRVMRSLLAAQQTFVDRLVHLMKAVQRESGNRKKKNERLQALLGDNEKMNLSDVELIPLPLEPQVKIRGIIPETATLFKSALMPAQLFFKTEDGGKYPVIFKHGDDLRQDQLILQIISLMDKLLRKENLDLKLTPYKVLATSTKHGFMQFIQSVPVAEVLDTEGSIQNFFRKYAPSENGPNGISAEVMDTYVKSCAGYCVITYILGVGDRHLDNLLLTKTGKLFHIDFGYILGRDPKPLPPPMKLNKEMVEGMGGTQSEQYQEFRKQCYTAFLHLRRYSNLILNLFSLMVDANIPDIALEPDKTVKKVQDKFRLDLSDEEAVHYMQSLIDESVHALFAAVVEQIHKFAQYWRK
Procedure for VPS34: The activities of PI3Kα, PI3Kβ, PI3Kδ, PI3Kγ, PI3KC2α, PI3KC2β, Vps34, PI4Kα and PI4Kβ were determined by using ADP-Glo assay, a fluorescence-based immunoassay that measures kinase activity in terms of the amount of ADP produced. A kinase titration was performed to determine the concentration. The amount of recombinant kinases was optimized to keep the reaction velocity within the linear range, to obtain an adequate difference between the resulting signals of sample in/out the presence of enzyme. The optimized enzyme concentrations for evaluating the inhibitory activities of compounds were chosen as follows: 0.16 μg/ml, 6.0 μg/ml, 1.0 μg/ml, 5.0 μg/ml, 5.0 μg/ml, 10.0 μg/ml, 1.2 μg/ml, 1.2 μg/ml and 1.0 μg/ml for PI3Kα, PI3Kβ, PI3Kδ, PI3Kγ, PI3KC2α, PI3KC2β, Vps34, PI4Kα and PI4Kβ, respectively. The ATP concentration was optimized, 10 μM ATP for PI3Kα and PI3Kβ, and 50 μM ATP for detection of the other seven kinases. The PI3Kα, PI3Kβ, PI3Kδ, PI3Kγ, PI3KC2α, PI3KC2β kinase reactions were carried out in 10 μl volume in a 384-well plate in the kinase reaction buffer containing 50 mM Hepes pH 7.5, 3 mM MgCl2, 1 mM EGTA, 1 mM NaCl, 0.03% CHAPS and 2 mM DTT. […] 10 μl kinase detection reagent was dded and incubated for 30 min at room temperature, before the luminescence signal was read with an envision PerkinElmer plate reader.

For the compound `Cc1nc(NC(=O)CN)sc1-c1cnc(Cl)c(NS(=O)(=O)c2ccc(C(C)(C)C)cc2)c1` [PI3KD/V-IN-01, 2-amino-N-(5-(5-(4-tert-butylphenylsulfonamido)-6-chloropyridin-3-yl)-4-methylthiazol-2-yl)acetamide], the values for the IC50 at VPS34 and on PI3Kγ [1] were 0.019 µM and 0.119 µM, respectively. The EC50 on PI3Kα is 2.97 µM; at PI3Kβ, more than 3 µM; on PI3Kγ [2], 0.186 µM; at PI3Kδ [3], 0.011 µM; on mTORC1 kinase, 1.7 µM; with MEC-2 [6], 1.58 µM. Moreover, the remaining binding at 1 µM on mTOR kinase amounted to 0%. Besides, the GI50 in the assay on HL-60 is 2.7 µM; in the assay with OCI-AML-3 [4], 2.4 µM; in the assay on OCI-AML-2 [5], 1 µM; in the assay on Hs 505T, more than 10 µM; in the assay with MEC-1, more than 10 µM. Moreover, in assay [7], the “Activity of GSK3β and NFκB” value is given as “not affected”. For the same compound, the “Phosphorylation of 4EBP1” value in [7] is “not inhibited”. In addition, the “effect on pAKT(T308, S473), pFOXO1, pPRAS40 and pS6K” value in assay [7] was “inhibition of pAKT(T308, S473) and downstream pFOXO1, pPRAS40 and pS6K”. Moreover, the induction of apoptosis result in the assay on MV4-11 was “apparent PARP cleavage observed”. Besides, the “levels of the autophagy markers, LC3BII and p62” value with OCI-AML-3 [8] was “concentration-dependent increase”. The cell cycle progression result in the assay on MEC-2 [9] is reported as “arrested in the G0/G1 phase”; in the assay on OCI-AML-2 [10] it was “no apparent cell cycle inhibition”. In addition, on PI3Kδ [11], the “Mode of inhibition against PI3Kδ” value is listed as “ATP competitive inhibitor”.
